Values of other authors, collected in patent US20040101478A1, “In vivo methods of determining activity of receptor-type kinase inhibitors” (priority 2003, published 2004).

Target: KDR kinase (Homo sapiens, UniProt P35968)
Details: Kasahara et al., 2000, J. Clin. Invest. 106: 1311-1319; cited from earlier work

Sequence of KDR kinase (P35968 20-1356): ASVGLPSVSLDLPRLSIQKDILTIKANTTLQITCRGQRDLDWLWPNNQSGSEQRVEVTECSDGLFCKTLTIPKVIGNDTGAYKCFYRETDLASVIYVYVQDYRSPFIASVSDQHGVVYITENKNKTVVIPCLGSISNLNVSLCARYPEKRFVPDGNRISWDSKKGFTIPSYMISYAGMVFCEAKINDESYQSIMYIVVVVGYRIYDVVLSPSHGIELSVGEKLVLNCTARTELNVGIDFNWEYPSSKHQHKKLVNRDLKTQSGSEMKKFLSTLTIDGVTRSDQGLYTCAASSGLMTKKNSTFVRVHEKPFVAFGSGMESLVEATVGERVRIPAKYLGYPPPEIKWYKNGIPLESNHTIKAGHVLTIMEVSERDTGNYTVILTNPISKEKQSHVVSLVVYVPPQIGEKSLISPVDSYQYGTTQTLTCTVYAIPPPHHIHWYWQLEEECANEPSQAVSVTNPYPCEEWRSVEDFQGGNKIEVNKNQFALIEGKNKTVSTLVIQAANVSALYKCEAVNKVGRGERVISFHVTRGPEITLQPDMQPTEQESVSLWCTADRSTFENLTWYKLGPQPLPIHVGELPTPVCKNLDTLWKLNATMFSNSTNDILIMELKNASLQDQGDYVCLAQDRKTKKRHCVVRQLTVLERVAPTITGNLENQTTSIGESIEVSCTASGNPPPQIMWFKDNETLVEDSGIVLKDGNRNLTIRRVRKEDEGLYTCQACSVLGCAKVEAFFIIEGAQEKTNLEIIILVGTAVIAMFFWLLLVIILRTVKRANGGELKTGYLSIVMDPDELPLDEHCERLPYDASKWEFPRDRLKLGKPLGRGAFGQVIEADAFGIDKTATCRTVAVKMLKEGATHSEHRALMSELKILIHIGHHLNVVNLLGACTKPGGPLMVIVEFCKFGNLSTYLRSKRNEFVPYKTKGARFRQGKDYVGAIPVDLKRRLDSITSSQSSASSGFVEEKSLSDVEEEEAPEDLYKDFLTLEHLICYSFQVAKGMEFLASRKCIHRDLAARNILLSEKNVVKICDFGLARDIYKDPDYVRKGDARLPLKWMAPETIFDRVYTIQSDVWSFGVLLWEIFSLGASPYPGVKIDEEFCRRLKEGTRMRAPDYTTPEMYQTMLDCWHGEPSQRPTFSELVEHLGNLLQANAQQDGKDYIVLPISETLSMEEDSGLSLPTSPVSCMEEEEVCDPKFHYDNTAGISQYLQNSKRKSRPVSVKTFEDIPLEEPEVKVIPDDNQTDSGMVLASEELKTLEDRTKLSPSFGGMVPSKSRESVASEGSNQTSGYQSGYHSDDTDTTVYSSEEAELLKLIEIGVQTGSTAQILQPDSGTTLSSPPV

Cc1cc(C)c(/C=C2\C(=O)Nc3ccccc32)[nH]1 [SU5416]
inhibition of VEGF-induced phosphorylation: inhibition of VEGF-induced phosphorylation
